# Experimental data from patent US11827628B2, “Compositions and methods for inhibition of the JAK pathway” (Rigel Pharmaceuticals, Inc., priority 2005, dated 2023).
# Where two headings read alike, the source gives them in different places.
# Key:
# [1] = test system: IL-4 stimulated expression of CD23 in human Ramos B cells (JAK-1 and JAK-3); experiment: Assay for Ramos B-Cell Line Stimulated with IL-4 (CD23 upregulation, FACS); format: cell-based; settings: read-out: IC50, Example 41
# Outline: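 Human Ramos B cells in RPMI with 5% serum were pre-incubated with compound or DMSO for 1 h at 37 °C, then stimulated with IL-4 at a final 50 units/mL for 20-24 h. CD23 upregulation was measured by anti-CD23-PE staining and flow cytometry, and IC50 values were calculated.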
# [2] = test system: up-regulation of ICAM-1 (CD54) by IFNγ in A549 lung epithelial cells; experiment: A549 Epithelial Line Stimulated with IFNγ (ICAM-1 surface expression, FACS); format: cell-based, human; settings: ICAM-1 expression by FACS, read-out: IC50, Example 43
# Excerpt: (§1) The activity of the compounds of the invention may additionally be characterized by assaying the effect of the 2,4-substituted pyrimidinediamine compounds described herein on A549 lung epithelial cells and U937 cells. A549 lung epithelial cells and U937 cells up-regulate ICAM-1 (CD54) surface expression in response to a variety of different stimuli. Therefore, using ICAM-1 expression as readout, test compound effects on different signaling pathways can be assessed in the same cell type. Stimulation with IL-1β through the IL-1β receptor activates the TRAF6/NFκB pathway resulting in up-regulation of ICAM-1. IFNγ induces ICAM-1 up-regulation through activation of the JAK1/JAK2 pathway. The up-regulation of ICAM-1 can be quantified by flow cytometry across a compound dose curve and EC50, values are calculated. An exemplary assays of this type are described in greater detail in Examples 43 and 44
# (§2) A549 lung epithelial cells up-regulate ICAM-1 (CD54) surface expression in response to a variety of different stimuli. Therefore, using ICAM-1 expression as readout, compound effects on different signaling pathways can be assessed in the same cell type. IFNγ up-regulates ICAM-1 through activation of the JAK/Stat pathway. In this example, the up-regulation of ICAM-1 by IFNγ was assessed.
# The A549 lung epithelial carcinoma cell line originated from the American Type Culture Collection. Routine culturing was with F12K media (Mediatech Inc., Lenexa, KS, Cat. No. 10-025-CV) with 10% fetal bovine serum, 100 I.U. penicillin and […] streptomycin (complete F12k media). Cells were incubated in a humidified atmosphere of 5% CO2 at 37° C. Prior to use in the assay, A549 cells were washed with PBS and trypsinized (Mediatech Inc., Cat. No. 25-052-CI) to lift the cells. The trypsin cell suspension was neutralized with complete F12K media and centrifuged to pellet the cells. The cell pellet was resuspended in complete F12K media at a concentration of 2.0×10^5/mL. Cells were seeded at 20,000 per well, 100 μL total volume, in a flat bottom tissue culture plate and allowed to adhere overnight.
# On day two, A549 cells were pre-incubated with a 2,4-substituted pyrimidinediamine test compound or DMSO (control) (Sigma-Aldrich, St. Louis, MO, Catalog No. D2650) for 1 hour. The cells were then stimulated with IFNγ (75 ng/mL) (Peprotech Inc., Rocky Hill, NJ, Cat. No. 300-02) and allowed to incubate for 24 hours. The final test compound dose range was 30 μM to 14 nM in 200 μL F12K media containing 5% FBS, 0.3% DMSO.
# On day three, the cell media was removed and the cells were washed with 200 μL PBS (phosphate buffered saline). Each well was trypsinized to dissociate the cells, then neutralized by addition of 200 μL complete F12K media. Cells were pelleted and stained with an APC conjugated mouse anti-human ICAM-1 (CD54) (BD Pharmingen, San Diego, CA, Catalog #559771) antibody for 20 minutes at 4° C. Cells were washed with ice cold FACS buffer (PBS+2% FBS) and surface ICAM-1 expression was analyzed by flow cytometry. Detection was performed using a BD LSR I System Flow Cytometer, purchased from BD Biosciences of San Jose, California Events were gated for live scatter and the geometric mean was calculated (Becton-Dickinson CellQuest software version 3.3, Franklin Lakes, NJ). Geometric means were plotted against the compound concentration to generate a dose response curve.
# [3] = test system: up-regulation of ICAM-1 (CD54) by IFNγ in U937 human monocytic cells; experiment: U937 IFNγ ICAM1 FACS Assay; format: cell-based; settings: ICAM-1 expression by FACS, read-out: IC50, Example 44
# Excerpt: as §1, with “calculated.” for “calculated. An exemplary assays of this type are described in greater detail in Examples 43 and 44”
# as §2, with “U937 human monocytic” for “A549 lung epithelial”
# The U937 human monocytic cell line was obtained from ATCC of Rockville Maryland, catalog number CRL-1593.2, and cultured in RPM1-1640 medium containing 10% (v/v) FCS. U937 cells were grown in 10% RPMI. The cells were then plated at a concentration of 100,000 cells per 160 μL in 96 well flat bottom plates. […] Then 4 μL of test compound was transferred to 76 μL of 10% RPMI resulting in a 10× solution (100 μM test compound, 5% DMSO). For control wells, 4 μL of DMSO was diluted into 76 μL 10% RPMI.
# The assay was performed in duplicate with 8 points (8 3-fold dilution concentrations from […]) and with 4 wells of DMSO only (control wells) under stimulated conditions and 4 wells of DMSO only under unstimulated conditions.
# The diluted compound plate was mixed 2× using a multimek (Beckman Coulter of Brea, California) and then 20 μL of the diluted compounds was transferred to the 96 well plate containing 160 μL of cells, which were then mixed again twice at low speeds. The cells and compounds were then pre-incubated for 30 minutes at 37° C. with 5% CO2.
# The 10× stimulation mix was made by preparing a 100 ng/mL solution of human IFNγ in 10% RPMI. […] The cells were kept under conditions for stimulation for 18-24 hours at 37° C. with 5% CO2.
# The cells were transferred to a 96 well round bottom plate for staining and then kept on ice for the duration of the staining procedure. Cells were spun down at 1000 rpm for 5 minutes at 4° C., following which the supernatant was removed. Following removal of the supernatant, 1 μL APC conjugated mouse anti-human ICAM-1 antibody was added per 100 μL FACS buffer. The cells were then incubated on ice in the dark for 30 minutes. Following incubation, […] of FACS buffer was added and the cells were centrifuged at 1000 rpm for 5 minutes at 4° C., following which the supernatant was removed. After removal of the supernatant, 200 μL of FACS buffer was added and the cells were resuspended. After suspension, the cells were centrifuged at 1000 rpm for 5 min at 4° C. Supernatant was then removed prior to resuspension of the cells in 150 μL FACS buffer.
# Detection was performed using a BD LSR I System Flow Cytometer, purchased from BD Biosciences of San Jose, California The live cells were gated for live scatter and the geometric mean of ICAM-APC was measured (Becton-Dickinson CellQuest software version 3.3, Franklin Lakes, NJ). Both % live cells and ICAM-1 expression was analyzed. The assays for the test compounds were carried out in parallel with a control compound of known activity.
# [4] = Ramos B-cell line stimulated with IL-4, CD23 expression by FACS
# [5] = A549 epithelial line stimulated with IFNγ
# [6] = Homo sapiens, Ramos, Ramos B-cell line stimulated with IL-4, CD23 expression by FACS
# [7] = Homo sapiens, A549, A549 epithelial line stimulated with IFNγ
smiles,measurement,setting,value
"CN1CCN(S(=O)(=O)c2cccc(Nc3ncc(F)c(Nc4cccc(OCC#N)c4)n3)c2)CC1 [Compound I-5, N4-(3-Cyanomethoxy)phenyl-5-fluoro-N2-[3-(4-methylpiperazin-1-yl)sulfonyl]phenyl-2,4-pyrimidinediamine]",IC50,[1]; [4],1650 nM
same,IC50,[2]; [5],29900 nM
"CN1CCN(S(=O)(=O)c2ccc(Nc3ncc(F)c(Nc4cccc(OCC#N)c4)n3)cc2)CC1 [Compound I-6, N4-(3-Cyanomethoxy)phenyl-5-fluoro-N2-[4-(4-methylpiperazin-1-yl)sulfonyl]phenyl-2,4-pyrimidinediamine]",IC50,[1]; [4],522 nM
same,IC50,[2]; [5],21000 nM
"Cc1cc(Nc2nc(Nc3ccc(S(=O)(=O)N4CCN(C)CC4)cc3)ncc2F)cc(C)c1OCC#N [Compound I-40, N4-(4-Cyanomethoxy-3,5-dimethylphenyl)-5-fluoro-N2-[4-(4-methylpiperazin-1-yl)sulfonylphenyl]-2,4-pyrimidinediamine]",IC50,[1]; [6],308 nM
same,IC50,[2]; [7],31000 nM
"N#CCOc1ccc(Nc2nc(Nc3ccc(S(N)(=O)=O)cc3)ncc2F)cc1Cl [Compound I-41, N2-(4-Aminosulfonylphenyl)-N4-(3-chloro-4-cyanomethoxyphenyl)-5-fluoro-2,4-pyrimidinediamine]",IC50,[1]; [6],37.4 nM
same,IC50,[2]; [7],10200 nM
"CN1CCN(S(=O)(=O)c2ccc(Nc3ncc(F)c(Nc4ccc(CC#N)cc4)n3)cc2)CC1 [III-6, N4-(4-Cyanomethyl)phenyl-5-fluoro-N2-[4-(4-methylpiperazin-1-yl)sulfonyl]phenyl-2,4-pyrimidinediamine]",IC50,[1]; [4],781 nM
same,IC50,[2]; [5],30700 nM
"NC(=O)NCc1cccc(Nc2nc(Nc3ccc(S(N)(=O)=O)cc3)ncc2F)c1 [III-113, N4-(3-aminocarbonylaminomethyl)phenyl-N2-(4-aminosulfonyl)phenyl-5-fluoro-2,4-pyrimidinediamine]",IC50,"[1]; Ramos B cells stimulated with IL-4, CD23 expression by FACS",1030 nM
same,IC50,[3]; U937 cells stimulated with IFNγ,345 nM
"Cc1c(Cl)cc(Nc2ncc(F)c(Nc3ccc(OC(F)(F)F)c(Cl)c3)n2)cc1S(N)(=O)=O [VI-14, N2-(3-Aminosulfonyl-5-chloro-4-methylphenyl)-N4-(3-chloro-4-trifluoromethoxyphenyl)-5-fluoro-2,4-pyrimidinediamine]",IC50,"[1]; Homo sapiens, Ramos, Ramos B cells stimulated with IL-4, CD23 expression by FACS",413 nM
same,IC50,"[3]; Homo sapiens, U-937, U937 cells stimulated with IFNγ",9270 nM
